Results on 15 compounds are retold here after ChEMBL document CHEMBL3301562, “MMV Box screening against Plasmodium falciparum protein kinases and aminoacyl tRNA synthetases”.

Format in all cases: functional
Test [1] concerns the target T1, Cdk-related protein kinase 6 (Plasmodium falciparum, UniProt O77239).
T1 sequence (O77239 whole entry): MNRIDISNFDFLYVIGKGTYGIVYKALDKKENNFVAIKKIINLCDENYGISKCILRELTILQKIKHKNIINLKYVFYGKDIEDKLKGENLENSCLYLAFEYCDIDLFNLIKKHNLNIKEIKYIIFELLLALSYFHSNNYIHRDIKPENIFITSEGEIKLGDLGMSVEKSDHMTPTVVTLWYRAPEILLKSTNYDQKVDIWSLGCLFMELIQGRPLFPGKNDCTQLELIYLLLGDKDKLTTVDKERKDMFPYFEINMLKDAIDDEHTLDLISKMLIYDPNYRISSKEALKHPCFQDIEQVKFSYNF
As to the kind of experiment: Final concentrations were 1.5 uM ATP, 5 mM MnCl2, and 15 ug/ml PK6 in a buffer of 100 mM Tris-HCl (pH 7.5). 50 ug/mL MBP was provided as the substrate; 10 uM staurosporine was used as a control inhibitor. Incubation time was 3 hours and 40 minutes.The catalytic activity of each kinase was considered proportional to ATP consumed, as determined from measurements of residual [ATP] with the luciferase-based reagent Kinase-Glo (Promega) following incubation. Luminescence (proportional to residual [ATP]) was measured on the plate readers FLx800 (BioTek Instruments, Winooski, VT, USA) and MicroBeta2. (In Kinase-Glo more light means more ATP remaining.)

Test [2] deals with T2, Putative uncharacterized protein pk7 (Plasmodium falciparum, UniProt O96214).
T2 sequence (O96214 whole entry): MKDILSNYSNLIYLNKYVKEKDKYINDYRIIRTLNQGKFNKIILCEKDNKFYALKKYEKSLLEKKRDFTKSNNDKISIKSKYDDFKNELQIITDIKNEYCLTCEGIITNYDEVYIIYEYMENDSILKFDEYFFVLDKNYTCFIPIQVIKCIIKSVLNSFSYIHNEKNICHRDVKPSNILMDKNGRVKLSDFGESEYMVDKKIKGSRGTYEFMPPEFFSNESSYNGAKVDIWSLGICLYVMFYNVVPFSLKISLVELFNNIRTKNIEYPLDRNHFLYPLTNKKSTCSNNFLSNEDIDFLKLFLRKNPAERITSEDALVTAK
As to the kind of experiment: Final concentrations were 1 uM ATP, 2 mM DTT, 20 mM MgCl2, 2 mM MnCl2, 0.01% BSA, and 6 ug/ml PK7, in a buffer of 20 mM Tris-HCl (pH 7.5). The enzyme itself was the only substrate present (since autophosphorylation occurs); 100 uM 1NA-PP1 was used as a control inhibitor. Incubation time was 3 hours.

Test [3] concerns the target T3, Mitogen-activated protein kinase (Plasmodium falciparum, UniProt Q25917).
T3 sequence (Q25917 whole entry): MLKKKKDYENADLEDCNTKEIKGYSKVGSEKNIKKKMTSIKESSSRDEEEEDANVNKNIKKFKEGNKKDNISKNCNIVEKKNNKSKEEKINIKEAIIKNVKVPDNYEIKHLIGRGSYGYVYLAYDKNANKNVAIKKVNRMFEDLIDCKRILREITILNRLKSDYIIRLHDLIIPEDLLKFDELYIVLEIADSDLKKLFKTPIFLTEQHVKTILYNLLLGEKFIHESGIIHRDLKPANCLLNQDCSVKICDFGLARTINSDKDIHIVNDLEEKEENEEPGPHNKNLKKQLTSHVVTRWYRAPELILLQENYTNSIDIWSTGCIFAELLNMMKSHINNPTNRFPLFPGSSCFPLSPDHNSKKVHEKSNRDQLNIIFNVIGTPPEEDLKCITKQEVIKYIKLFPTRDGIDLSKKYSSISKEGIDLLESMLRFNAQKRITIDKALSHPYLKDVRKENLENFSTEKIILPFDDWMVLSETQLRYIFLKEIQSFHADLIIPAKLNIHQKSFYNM
As to the kind of experiment: Final concentrations were 1 uM ATP, 0.5 mM DTT, 1 mM MgCl2, 0.5 mg/mL BSA, and 10 ug/ml MAP2 in a buffer of 50 mM HEPES (pH 7.0). 0.5 mg/mL histone III-S served as the substrate (13); 100 uM AMP-PNP, an ATP analog, was used as a control inhibitor. Incubation time was 4 hours.

In test [4] the target is Calcium-dependent protein kinase 1 (Plasmodium falciparum, UniProt P62344). Put plainly: MMV: CDPK1 Protein kinase inhibition assay using recombinant PfCDPK1, syntide 2 peptide substrate, ATP and KinaseGlo to measure % inhibition at 1 uM MMV box compound.
Calcium-dependent protein kinase 1, sequence (P62344 whole entry): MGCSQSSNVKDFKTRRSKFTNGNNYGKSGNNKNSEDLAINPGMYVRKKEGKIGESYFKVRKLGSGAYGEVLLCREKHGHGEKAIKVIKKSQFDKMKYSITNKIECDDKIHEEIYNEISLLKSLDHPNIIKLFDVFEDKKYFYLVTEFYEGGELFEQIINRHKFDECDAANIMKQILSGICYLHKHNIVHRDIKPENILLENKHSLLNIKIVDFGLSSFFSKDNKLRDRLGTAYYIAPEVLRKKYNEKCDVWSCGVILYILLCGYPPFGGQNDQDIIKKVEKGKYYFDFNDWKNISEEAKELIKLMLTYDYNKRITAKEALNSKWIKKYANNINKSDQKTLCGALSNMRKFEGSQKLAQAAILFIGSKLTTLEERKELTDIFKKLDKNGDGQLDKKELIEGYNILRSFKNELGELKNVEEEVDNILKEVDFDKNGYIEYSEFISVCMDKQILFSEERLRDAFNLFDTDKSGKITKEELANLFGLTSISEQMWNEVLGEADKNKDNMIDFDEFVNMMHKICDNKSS
In test [5] the target is T4, Calcium-dependent protein kinase 4 (Plasmodium falciparum (isolate 3D7), UniProt Q8IBS5).
T4 sequence (Q8IBS5 whole entry): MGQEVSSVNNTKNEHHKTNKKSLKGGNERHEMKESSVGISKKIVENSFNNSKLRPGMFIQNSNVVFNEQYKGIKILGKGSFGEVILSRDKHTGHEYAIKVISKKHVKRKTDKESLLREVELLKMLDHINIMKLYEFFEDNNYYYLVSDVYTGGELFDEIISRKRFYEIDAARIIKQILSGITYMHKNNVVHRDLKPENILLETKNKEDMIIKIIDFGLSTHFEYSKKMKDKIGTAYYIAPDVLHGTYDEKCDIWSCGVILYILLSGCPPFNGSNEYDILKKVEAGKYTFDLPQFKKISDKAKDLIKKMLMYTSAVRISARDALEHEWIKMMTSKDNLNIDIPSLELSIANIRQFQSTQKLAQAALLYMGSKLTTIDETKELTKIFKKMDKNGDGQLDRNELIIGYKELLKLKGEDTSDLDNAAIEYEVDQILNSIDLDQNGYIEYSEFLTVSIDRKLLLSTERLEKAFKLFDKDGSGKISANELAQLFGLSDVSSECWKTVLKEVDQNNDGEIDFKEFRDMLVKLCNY
As to the kind of experiment: MMV: CDPK4 Protein kinase inhibition assay using recombinant PfCDPK4, syntide2 peptide substrate, ATP and KinaseGlo to measure % inhibition at 1 uM MMV box compound.

Test [6] concerns the target T5, Proline--tRNA ligase (Plasmodium falciparum (isolate 3D7), UniProt Q8I5R7).
T5 sequence (Q8I5R7 whole entry): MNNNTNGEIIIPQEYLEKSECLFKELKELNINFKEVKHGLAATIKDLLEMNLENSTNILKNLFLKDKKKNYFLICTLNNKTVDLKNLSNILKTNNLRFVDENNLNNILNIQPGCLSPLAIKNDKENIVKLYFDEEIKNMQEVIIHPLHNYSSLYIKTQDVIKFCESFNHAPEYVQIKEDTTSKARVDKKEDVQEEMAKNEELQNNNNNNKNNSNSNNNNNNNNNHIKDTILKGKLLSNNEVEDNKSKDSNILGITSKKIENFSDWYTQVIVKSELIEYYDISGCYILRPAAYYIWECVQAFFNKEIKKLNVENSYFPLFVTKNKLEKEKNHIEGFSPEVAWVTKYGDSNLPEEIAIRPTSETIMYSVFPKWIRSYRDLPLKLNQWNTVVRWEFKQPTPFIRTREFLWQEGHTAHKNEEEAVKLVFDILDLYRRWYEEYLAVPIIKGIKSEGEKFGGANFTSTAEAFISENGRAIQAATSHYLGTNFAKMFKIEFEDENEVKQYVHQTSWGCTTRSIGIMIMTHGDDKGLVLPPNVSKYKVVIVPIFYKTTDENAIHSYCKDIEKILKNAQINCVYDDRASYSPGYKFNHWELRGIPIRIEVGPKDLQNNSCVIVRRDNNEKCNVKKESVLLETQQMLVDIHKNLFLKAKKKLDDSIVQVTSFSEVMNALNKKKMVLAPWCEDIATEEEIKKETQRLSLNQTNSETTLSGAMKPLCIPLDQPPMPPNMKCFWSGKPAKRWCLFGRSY
Put plainly: MMV: ProRS recombinant Plasmodium falciparum Prolyl-tRNA-synthetase, assay with yeast tRNA, ATP, and proline and 3 uM MMV malaria box compound, assay read out with kinase glo as % inhibition.

In test [7] the target is Lysine--tRNA ligase (Plasmodium falciparum (isolate 3D7), UniProt Q8IDJ8). Put plainly: MMV: KRS recombinant Plasmodium falciparum Lysyl-tRNA-synthetase, assay with yeast tRNA, ATP, and lysine and 3 uM MMV malaria box compound, assay read out with kinase glo as % inhibition.
Lysine--tRNA ligase, sequence (Q8IDJ8 whole entry): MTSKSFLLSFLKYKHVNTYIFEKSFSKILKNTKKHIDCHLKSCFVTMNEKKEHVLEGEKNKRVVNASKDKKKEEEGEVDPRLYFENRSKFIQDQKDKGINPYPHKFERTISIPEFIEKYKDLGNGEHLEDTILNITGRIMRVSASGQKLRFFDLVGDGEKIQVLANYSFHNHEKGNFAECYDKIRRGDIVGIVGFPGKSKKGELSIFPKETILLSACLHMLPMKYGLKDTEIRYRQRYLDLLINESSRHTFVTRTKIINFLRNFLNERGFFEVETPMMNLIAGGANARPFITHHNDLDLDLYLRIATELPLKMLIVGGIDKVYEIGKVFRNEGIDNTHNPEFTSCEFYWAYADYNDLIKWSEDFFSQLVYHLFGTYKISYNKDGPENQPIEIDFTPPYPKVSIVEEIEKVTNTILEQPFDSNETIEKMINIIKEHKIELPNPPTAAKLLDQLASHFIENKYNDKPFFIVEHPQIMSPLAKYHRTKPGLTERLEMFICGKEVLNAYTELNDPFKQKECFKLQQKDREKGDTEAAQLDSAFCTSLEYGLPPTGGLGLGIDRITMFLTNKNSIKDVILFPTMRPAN

The structures appear in SMILES notation.

One may read the IC50 as the midpoint of a concentration-inhibition curve. Regarding `O=C(NCc1ccco1)C1CCN(S(=O)(=O)c2ccc(Cl)cc2)CC1`, the 50% inhibitory concentration (IC50) is greater than 1 µM in test [1]; greater than 1 µM in test [2]; greater than 1 µM in test [3]; greater than 1 µM in test [4]; greater than 1 µM in test [5]; greater than 2.5 µM in test [6]. Further, in test [7], the 50% inhibitory concentration (IC50) is greater than 2.5 µM.
For the compound `c1ccc(-c2ccc(-c3nc4ccccc4[nH]3)cc2)cc1`, the IC50 in test [1] is greater than 1 µM; in test [2], greater than 1 µM; in test [3] it was greater than 1 µM; in test [4], greater than 1 µM; in test [5], greater than 1 µM; in test [6], greater than 2.5 µM. The IC50 in test [7] was greater than 2.5 µM.
With `CCC(C)NCC(O)(c1ccc(Cl)cc1)c1ccc(Cl)cc1` (stereo not given), the IC50 is greater than 1 µM in test [1]; greater than 1 µM in test [2]; greater than 1 µM in test [3]; greater than 1 µM in test [4]; greater than 1 µM in test [5]; greater than 2.5 µM in test [6]. Besides, the half-maximal inhibitory concentration (IC50) in test [7] is greater than 2.5 µM.
Consider `COCCNC(=O)c1ccc(OC2CCN(Cc3ccc(F)c(F)c3)CC2)c(Cl)c1`, for which the IC50 in test [1] was greater than 1 µM; in test [2] it was greater than 1 µM; in test [3], greater than 1 µM; in test [4], greater than 1 µM; in test [5] it was greater than 1 µM; in test [6] it was greater than 2.5 µM. Moreover, in test [7], the IC50 is greater than 2.5 µM.
For `O=C(CCc1ccco1)NC1CCN(CC2(c3ccc(Cl)cc3)CCC2)CC1`, the IC50 in test [1] is greater than 1 µM; in test [2], greater than 1 µM; in test [3] it was greater than 1 µM; in test [4], greater than 1 µM; in test [5], greater than 1 µM; in test [6] it was greater than 2.5 µM. Moreover, in test [7], the half-maximal inhibitory concentration (IC50) is greater than 2.5 µM.
With `COCCN(C(=O)Cc1cccs1)C(C(=O)NCc1ccc(OC)cc1)c1ccc(C(C)C)cc1` (stereo not given), the IC50 is greater than 1 µM in test [1]; greater than 1 µM in test [2]; greater than 1 µM in test [3]; greater than 1 µM in test [4]; greater than 1 µM in test [5]; greater than 2.5 µM in test [6]. Further, the IC50 in test [7] was greater than 2.5 µM.
As to `FC(F)(F)c1cccc(CNC2CCN(CCc3ccccc3)CC2)c1`, the half-inhibitory concentration (IC50) in test [1] was greater than 1 µM; in test [2] it was greater than 1 µM; in test [3], greater than 1 µM; in test [4], greater than 1 µM; in test [5] it was greater than 1 µM; in test [6] it was greater than 2.5 µM. Besides, in test [7], the IC50 was greater than 2.5 µM.
In the case of `O=C(c1ccccc1F)N(Cc1ccc(Cl)cc1)c1ccccn1`, the IC50 in test [1] was greater than 1 µM; in test [2], greater than 1 µM; in test [3], greater than 1 µM; in test [4] it was greater than 1 µM; in test [5] it was greater than 1 µM; in test [6] it was greater than 2.5 µM. Also, the IC50 in test [7] was greater than 2.5 µM.
For the compound `CCCCNCC(O)(c1ccc(Cl)cc1)c1ccc(Cl)cc1`, the IC50 in test [1] was greater than 1 µM; in test [2] it was greater than 1 µM; in test [3] it was greater than 1 µM; in test [4], greater than 1 µM; in test [5] it was greater than 1 µM; in test [6], greater than 2.5 µM. Further, the half-inhibitory concentration (IC50) in test [7] was greater than 2.5 µM.
Regarding `CC(C)(C)CC(C)(C)NCC(O)COc1ccc2c(c1)CCC2` (stereo not given), the IC50 in test [1] is greater than 1 µM; in test [2] it was greater than 1 µM; in test [3] it was greater than 1 µM; in test [4], greater than 1 µM; in test [5], greater than 1 µM; in test [6], greater than 2.5 µM. Also, in test [7], the IC50 was greater than 2.5 µM.
`CCOc1ccc(/C=C/c2nc(=O)c3ccccc3o2)cc1`: the IC50 in test [1] was greater than 1 µM; in test [2] it was greater than 1 µM; in test [3], greater than 1 µM; in test [4] it was greater than 1 µM; in test [5], greater than 1 µM; in test [6], greater than 2.5 µM. For the same compound, the 50% inhibitory concentration (IC50) in test [7] is greater than 2.5 µM.
As for `O=C(Nc1ccccc1O)c1ccc(-c2ccc(Cl)cc2Cl)o1`, the IC50 is greater than 1 µM in test [1]; greater than 1 µM in test [2]; greater than 1 µM in test [3]; greater than 1 µM in test [4]; greater than 1 µM in test [5]; greater than 2.5 µM in test [6]. The IC50 in test [7] is greater than 2.5 µM.
`CC(O)(c1ccc(Cl)cc1)C(CN1CCCCC1)c1ccccc1` (stereo not given): the half-inhibitory concentration (IC50) in test [1] is greater than 1 µM; in test [2], greater than 1 µM; in test [3], greater than 1 µM; in test [4], greater than 1 µM; in test [5], greater than 1 µM; in test [6] it was greater than 2.5 µM. Further, in test [7], the 50% inhibitory concentration (IC50) is greater than 2.5 µM.
Regarding `CCOc1ccccc1CNC(=O)C1c2ccccc2C(=O)N(CC(C)C)C1c1cccs1` (stereo not given), the half-inhibitory concentration (IC50) is greater than 1 µM in test [1]; greater than 1 µM in test [2]; greater than 1 µM in test [3]; greater than 1 µM in test [4]; greater than 1 µM in test [5]; greater than 2.5 µM in test [6]. In test [7], the half-maximal inhibitory concentration (IC50) was greater than 2.5 µM.
Consider `CCN(CC)CCCNc1nc(-c2ccc(Cl)cc2)nc2ccccc12`, for which the IC50 in test [1] was greater than 1 µM; in test [2], greater than 1 µM; in test [3], greater than 1 µM; in test [4], greater than 1 µM; in test [5], greater than 1 µM; in test [6], greater than 2.5 µM. Besides, in test [7], the IC50 is greater than 2.5 µM.
